Measured values taken from US20050009913A1, “Method for inactivating bacteria and leukocytes in thrombocyte suspensions” (priority 2001, published 2005).

Columns and labels:
S. epidermidis = test: Photoinactivation of S. epidermidis in TC (colony forming assay); format: cell-based, Staphylococcus epidermidis; conditions: for Bacteria titre after light, Exp. 1 / Bacteria titre after light, Exp. 2: compound 2 mM, light energy input 3000 kJ/m^2
Method: (§1) In the experiments described, TC was used which had been obtained from the buffy coats of donor blood and which was suspended in plasma or in a conventional storage medium (T-sol) with approximately 40% plasma. A system fitted with xenon lamps and in which the emitted UV fraction was masked out by a window glass filter was used for the exposure. Staphylococcus (S.) epidermidis was generally used as the test bacterium. Bacteria titres were determined using a colony forming assay. These are given in “colony forming units per ml” (CFU/ml).
(§2) In the experiments on the inactivation of bacteria TC aliquots of respectively 60 ml located in PVC storage bags having a nominal volume of 500 ml were treated. After adding delta-Ala or the methyl ester of delta-Ala (see Table 1) the samples were pre-incubated for one hour at room temperature in the thrombocyte rotator and then exposed to light. In the experiments on the inactivation of leukocytes the samples were pre-incubated overnight (i.e., for approximately 16-20 h) or for 4 hours. The light energy deposited in the samples is given in kilojoules per m^2 (kJ/m^2). 3000 kJ/m^2 corresponds to an exposure time of about one hour. Each experiment was carried out at least twice.
In order to determine the quantity of light sufficient to largely inactivate S. epidermidis, i.e., by at least 2 log10 grades, the following experiments were carried out: 1000 to 1500 CFU/ml S. epidermidis was added to TC, either in storage medium having a plasma content of approximately 40% or in plasma; delta-Ala was then added in a concentration of 0.25 mM (plasma-reduced TC) or 1 mM (TC with approximately 100% plasma). After pre-incubating for one hour at room temperature, the samples were exposed to different amounts of light. The results are plotted in FIGS. 3 and 4.

Pseudomonas aeroginosa = test: Photoinactivation of Pseudomonas aeroginosa in TC (colony forming assay); format: cell-based; conditions: 1 mM delta-Ala
Method: as §1, §2

Staphylococcus aureus = test: Photoinactivation of Staphylococcus aureus in TC (colony forming assay); format: cell-based; conditions: 1 mM delta-Ala
Method: as §1, §2

Yersinia enterocolitica = test: Photoinactivation of Yersinia enterocolitica in TC (colony forming assay); format: cell-based; conditions: 1 mM delta-Ala
Method: as §1, §2

Escherichia coli = test: Photoinactivation of Escherichia coli in TC (colony forming assay); format: cell-based; conditions: 1 mM delta-Ala
Method: as §1, §2

Serratia marescens = test: Photoinactivation of Serratia marescens in TC (colony forming assay); format: cell-based; conditions: 1 mM delta-Ala
Method: as §1, §2

Enterobacter cloacae = test: Photoinactivation of Enterobacter cloacae in TC (colony forming assay); format: cell-based; conditions: 1 mM delta-Ala
Method: as §1, §2

T lymphocytes = test: Photoinactivation of T lymphocytes in TC (Con A proliferation assay, BRDU incorporation); format: cell-based; conditions: pre-incubation approx. 16 h, light energy input 2000 kJ/m^2 (FIG. 5)
Method: as §2

thrombocytes = test: Functional in-vitro properties of TC after delta-Ala and exposure to light (hypotonic shock reaction, collagen-induced aggregation); format: cell-based; conditions: after treatment with delta-Ala and subsequent exposure to light
[1] = after exposure, 1500 kJ/m^2, average of two experiments
[2] = before exposure, average of two experiments

With NCC(=O)CCC(=O)O [Delta-Ala, 6-aminolevulinic acid] the “Bacteria titre after light, Exp. 1” value (S. epidermidis; TC in 100% plasma) was 5 CFU/ml, the “Bacteria titre after light, Exp. 2” value (S. epidermidis; TC in 100% plasma) was 3.5 CFU/ml and the “Bacteria titre after exposure” value (S. epidermidis; TC, 1 mM delta-Ala, after exposure, 1500 kJ/m^2, average of two experiments) was 2 CFU/ml. The “Bacteria titre before exposure” value (S. epidermidis; TC, 1 mM delta-Ala, before exposure, average of two experiments) was 2440 CFU/ml, the “delta-Ala concentration sufficient for inactivation” value (S. epidermidis; plasma-reduced TC, light energy input 3000 kJ/m^2 (FIG. 2)) was at most 0.1 mM and the “Light energy to be irradiated for extensive inactivation of the bacteria” value (S. epidermidis; thrombocytes suspended in 100% plasma, 1 mM delta-Ala, pre-incubation one hour (FIG. 4)) was “approximately 3000 kJ/m^2”. For the same compound, the “Bacteria titre after exposure” value (Pseudomonas aeroginosa; [1]) was 1 CFU/ml, the “Bacteria titre before exposure” value (Pseudomonas aeroginosa; [2]) was 700 CFU/ml and the “Reduction of infectious titre” value (Staphylococcus aureus; 1500 kJ/m^2) was about 97%. For the same compound, the “Bacteria titre after exposure” value (Staphylococcus aureus; [1]) was 51 CFU/ml, the “Bacteria titre before exposure” value (Staphylococcus aureus; [2]) was 2000 CFU/ml and the “Bacteria titre after exposure” value (Yersinia enterocolitica; [1]) was 1 CFU/ml. The “Bacteria titre before exposure” value (Yersinia enterocolitica; [2]) was 4650 CFU/ml, the “Bacteria titre after exposure” value (Escherichia coli; [1]) was 3 CFU/ml and the “Bacteria titre before exposure” value (Escherichia coli; [2]) was 11300 CFU/ml. The “Bacteria titre after exposure” value (Serratia marescens; [1]) was 1 CFU/ml, the “Bacteria titre before exposure” value (Serratia marescens; [2]) was 2500 CFU/ml and the “Reduction of infectious titre” value (Enterobacter cloacae; 1500 kJ/m^2) was “approximately 95%”. The “Bacteria titre after exposure” value (Enterobacter cloacae; [1]) was 1280 CFU/ml, the “Bacteria titre before exposure” value (Enterobacter cloacae; [2]) was 24500 CFU/ml and the “Required concentration of delta-Ala for photoinactivation of T lymphocytes” value (T lymphocytes) was “higher than 1 mM”. For the same compound, the “Functional in-vitro properties of TC and other thrombocyte parameters after treatment” value (thrombocytes) was “had not changed”.

With COC(=O)CCC(=O)CN [Methyl-Ala, delta-Ala methyl ester] the “Efficacy of inactivation of S. epidermidis compared with delta-Ala” value (S. epidermidis; TC in 100% plasma, 2 mM, 3000 kJ/m^2 (Table 1)) was “the same efficacy”, the “Bacteria titre after light, Exp. 1” value (S. epidermidis; TC in 100% plasma) was 1.5 CFU/ml and the “Bacteria titre after light, Exp. 2” value (S. epidermidis; TC in 100% plasma) was 4 CFU/ml.
